Test results: patent US20050075399A1, “Methods and kits for enhancing ability to learn in a puppy or kitten” (The Procter & Gamble Company, priority 2003, published 2005)

Assays:
Assay type in all cases: in vivo
purebred beagle puppies [1] = assay: Maze test of the ability of puppies to learn in a training environment (success criteria); conditions: puppy and maternal animal
Description: (§1) A study is conducted to determine effect of compositions described herein upon the ability of puppies to learn in a training environment.
Ten purebred beagle puppies are randomized and assigned to Group 1 (n=3), Group 2 (n=3), or Group 3 (n=4). Each of the puppies is about nine weeks of age. Their respective weights are appropriate for age and body size.
Three treatment compositions are utilized for the study. These compositions are: 1) for Group 1, a nutritionally balanced food composition comprising an essential fatty acid component comprising about 0.14% DHA, by weight of the composition; 2) for Group 2, a nutritionally balanced food composition which is similar in all respects except that the essential fatty acid component comprises about 0.08% DHA, by weight of the composition; and 3) for Group 3, a nutritionally balanced food composition which is similar in all respects except that the essential fatty acid component comprises about 0.02% DHA, by weight of the composition.
(§2) The respective maternal animal for each puppy in Group 1 receives, ad libitum, a nutritionally balanced food composition comprising an essential fatty acid component comprising about 0.14% DHA, by weight of the composition, during gestation, nursing, or weaning (or any combination thereof) of such puppy.
as §2, with “2” for “1”, “0.08%” for “0.14%”
as §2, with “3” for “1”, “0.02%” for “0.14%”
Throughout the study, the puppies are fed their respective compositions twice daily. Treats are utilized for training purposes; the treats which are used are PURINA® Puppy Canned Formula.
The study utilizes a room having a maze constructed in general accordance with the maze illustrated in FIG. 2. Referring now to FIG. 2, Point A Crate is a starting area and contains a crate with a door that cannot be seen through. This crate door is easily opened by a study technician. The crate allows immediate entrance into the maze when the door is opened. The crate door is opened either upward or flat, or by some other means such that the maze path is not obstructed. Point B Maze Symbol contains one of two symbols (i.e., a circle and square) indicating to the trained puppy where the treat will be located. The symbol is attached at a height which is easily visualized by the puppy. Point C Treat Pan is the ending location where the treat pan will be located. Point C Treat Pan is the correct designation for a maze designated left. Point D Treat Pan is the ending location where another treat pan will be located. Point D Treat Pan is the correct designation for a maze designated right.
Prior to training, each puppy is randomly assigned two symbol-direction combinations. The possible groupings are identified below as Groups A and B:
Training with assistance takes place for one week. Each puppy is trained in accordance to whether it is a Group A puppy or a Group B puppy. For Group A puppies, the puppy is trained numerous times to learn that if a treat is placed on the circle at Point B Maze Symbol, then another treat is located to the right at Point D Treat Pan. Likewise, for Group A puppies, the puppy is trained the same number of time to learn that if a treat is placed on the square at Point B Maze Symbol, then another treat is located to the left at Point C Treat Pan. Group B puppies will follow this same outline with the exception that sessions with a circle as the symbol will go to the left and a square as the symbol will go right. […]

purebred beagle puppies [2] = assay: Three-door multiple shape testing (symbol as the cue); conditions: for puppies that passed the test on their initial testing: pass = at least 80% correct
Description: as §1
(§3) Twelve purebred beagle puppies are randomized and assigned to either Group 1 or Group 2. Each of Groups 1 and 2 contains six of the puppies. Each of the puppies is about nine weeks of age. Their respective weights are appropriate for age and body size.
(§4) Two treatment compositions are utilized for the study. These compositions are: 1) for Group 1, a nutritionally balanced food composition comprising an essential fatty acid component comprising 0.18% DHA, by weight of the composition; and 2) for Group 2, a nutritionally balanced food composition which is similar in all respects except that the essential fatty acid component comprises 0.02% DHA, by weight of the composition.
(§5) Throughout the study, the puppies are fed their respective compositions ad libitum. Treats are utilized for training purposes; the treats which are used are PURINA® Puppy Canned Formula.
Following location training, each puppy receives two days of shape training, wherein the study shapes are randomly placed on different doors simultaneously. The objective is to determine whether the puppy learns that the symbol is associated with the treat target, not the door location. Following this training, each puppy received two testing sessions to determine ability to identify the symbol as the cue. A puppy is determined to pass if at least 80% of the test is correct. Puppies that failed are given two additional days of training and are retested. A puppy is given a maximum of three attempts to pass the multiple shape testing.
Each puppy is randomly assigned a shape of either a square or a circle. The “correct” door is the door bearing the shape which is assigned to the puppy; the location of the “correct” door is systematically modified throughout the study such that the puppy must learn to identify with the shape rather than the location of the door. The puppies are trained for several days in order to learn the process of choosing the “correct” door within a time period of two minutes. Training occurs with various learning procedures, including placing a trail of treats in front of the “correct” door.
After several days of training, the learning procedures are eliminated and the puppy performs without intervention. The puppy is given two minutes to reach the “correct” door. If the puppy fails to reach the “correct” door within the two minute time period, the puppy receives an incorrect score for that attempt. If the puppy reaches the “correct” door within the two minute time period, the puppy receives a correct score for that attempt.

purebred beagle puppies [3] = assay: Three-door location training test (assigned door); conditions: all puppies regardless of group (0.18% DHA or 0.02% DHA food composition, ad libitum)
Description: as §1, §3, §4, §5
The study utilizes three doors of identical size and shape. Each puppy is randomly assigned to one of three doors along with a random symbol (circle or square) for location training. The objective of the study is to train the puppy to reach the “correct” door, i.e. the door bearing the shape which is assigned to the respective puppy. A box is marked with tape in front of each door. […]

[4] = Group 1 (n=3): food composition about 0.14% DHA
[5] = Group 2 (n=3): food composition about 0.08% DHA
[6] = Group 3 (n=4): food composition about 0.02% DHA
[7] = Group 1 (n=6): food composition 0.18% DHA ad libitum
[8] = Group 2 (n=6): food composition 0.02% DHA ad libitum

CC/C=C\C/C=C\C/C=C\C/C=C\C/C=C\C/C=C\CCC(=O)O [DHA, docosahexaenoic acid]
puppies that achieved a single success criteria (purebred beagle puppies [1]; [4]): 100% | puppies that achieved two success criteria (purebred beagle puppies [1]; [4]): 66% | puppies that achieved a single success criteria (purebred beagle puppies [1]; [5]): 66% | puppies that achieved two success criteria (purebred beagle puppies [1]; [5]): 0% | puppies that achieved a single success criteria (purebred beagle puppies [1]; [6]): 50% | puppies that achieved two success criteria (purebred beagle puppies [1]; [6]): 0% | puppies that passed following additional training days (purebred beagle puppies [2]; [7]): 75% | puppies that passed the test on their initial testing (purebred beagle puppies [2]; [7]): 50% | puppies that passed following additional training days (purebred beagle puppies [2]; [8]): 45% | puppies that passed the test on their initial testing (purebred beagle puppies [2]; [8]): 16% | correct scores in locating the assigned location (door) (purebred beagle puppies [3]): greater than 90%
